Several values for one entry are separate records, joined by “and”; a condition that tells them apart may be missing. Equal values may be shown once.
Molecular target: T1, NUAK1 (Homo sapiens, UniProt O60285)
T1 sequence (O60285 1-661): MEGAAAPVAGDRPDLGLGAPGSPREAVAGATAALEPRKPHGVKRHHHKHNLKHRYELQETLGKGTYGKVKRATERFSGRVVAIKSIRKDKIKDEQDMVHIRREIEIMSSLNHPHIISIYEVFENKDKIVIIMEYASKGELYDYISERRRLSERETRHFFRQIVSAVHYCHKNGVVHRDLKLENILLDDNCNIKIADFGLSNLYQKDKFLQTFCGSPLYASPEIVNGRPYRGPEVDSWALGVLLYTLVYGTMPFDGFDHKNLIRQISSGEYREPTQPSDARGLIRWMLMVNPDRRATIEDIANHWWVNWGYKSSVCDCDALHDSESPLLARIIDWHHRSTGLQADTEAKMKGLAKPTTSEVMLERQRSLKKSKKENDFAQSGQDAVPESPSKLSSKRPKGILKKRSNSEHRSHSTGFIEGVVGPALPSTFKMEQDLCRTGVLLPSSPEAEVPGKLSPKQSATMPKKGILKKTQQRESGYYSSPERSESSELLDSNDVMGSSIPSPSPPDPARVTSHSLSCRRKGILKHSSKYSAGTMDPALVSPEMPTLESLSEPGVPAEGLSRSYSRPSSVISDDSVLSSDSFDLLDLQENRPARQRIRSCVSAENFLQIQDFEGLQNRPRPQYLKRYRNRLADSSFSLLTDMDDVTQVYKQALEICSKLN
Experiment: ADP-Glo biochemical assay NUAK1
Design: purchased MRC PPU
Settings: not given
Method: (§1) Biological experimental procedures
(§2) ADP-Glo biochemical assays
(§3) Protein kinase activity in the presence of inhibitor compounds was determined by ADP-Glo assay (Promega), as previously described.1,2 Compounds were serialised using a Labcyte Echo 520 and transferred to 384 well plates (Greiner 784201) followed by the addition 5 µL of substrate containing peptide and ATP at Km in buffer (see Table S6). 5 µL of purified protein was added and the plate was incubated for 60 minutes at room temperature (ng/well; see Table S6). 3 µL of assay mixture was transferred using an Integra Viaflo384 into a white low volume plate (Greiner 781904) prior to the addition of 3 µL of ADP-Glo Reagent™ for a further 40 minute incubation. After incubation with 6 µL of Kinase Detection Reagent for 30 minutes, plate luminescence was read (Pherastar FSX, BMG […]
(§4) 30 mM HEPES pH7.4, 3 mM MgCl2, 3 mM MnCl2, 1.2 mM DTT, 0.01% CHAPS
(§5) Table S6: Conditions for protein kinase ADP-Glo assays
(§6) ATP AT Peptide Peptide Enzyme Enzyme Assay Buffe Min.
(§7) Protein conc. P Peptide name conc. supplier amount supplier vol. r na […]
(§8) NUAK1 µM µM Sakamototide 50 µM Merck 6.7 ng PPU 10 µl A 6
(§9) A µM µM Sakamototide 100 µM Merck 1 ng PPU 10 µl B 2 […]
(§10) aMin. n: Minimum number of technical replicates per compound

Row | SMILES | ligand efficiency
1 | CN1CCN(c2ccc(Nc3ncc4cc(C#N)c(=O)n(C5CCCC5)c4n3)cc2)CC1 [Compound 3, Narazaciclib, reference compound] | 0.33
2 | CC(C)N1CCN(c2ccc(Nc3ncc4c(n3)N(C3CCCC3)C(=O)C4)cc2)CC1 [Compound 7] | 0.38
3 | CC(C)N1CCN(c2ccc(Nc3ncc4ccn(C5CCCC5)c4n3)cc2)CC1 [Compound 8] | 0.39

Same assay, conditions: ADP-Glo assay

Row | SMILES | NUAK1 pIC50
4 | CN1CCN(c2ccc(Nc3ncc4cc(C#N)c(=O)n(C5CCCC5)c4n3)cc2)CC1 [Compound 3, Narazaciclib, reference compound] | 7.58
5 | Cc1cc(=O)n(C2CCCC2)c2nc(Nc3ccc(N4CCN(C)CC4)cc3)ncc12 [Compound 4] | 8.3
6 | CC(C)N1CCN(c2ccc(Nc3ncc4c(n3)N(C3CCCC3)C(=O)C4)cc2)CC1 [Compound 7] | 8.38 and 8.4
7 | CC(C)N1CCN(c2ccc(Nc3ncc4ccn(C5CCCC5)c4n3)cc2)CC1 [Compound 8] | 8.3
8 | CN1C2CC1CN(c1ccc(Nc3ncc4cc(C#N)c(=O)n(C5CCCC5)c4n3)cc1)C2 [Compound 10] | 7.8
9 | Cc1cc(=O)n(C(C)C)c2nc(Nc3ccc(N4CC5CC(C4)N5C)cc3)ncc12 [Compound 20] | 7.68 and 7.7
10 | CC(C)N1CCN(c2ccc(Nc3ncc4ccn(CC5CCOC(C)(C)C5)c4n3)cc2)CC1 (centres unmarked) [Compound 26] | 8.6
11 | CC(C)N1CCN(c2ccc(Nc3ncc4ccn(CC5CCCO5)c4n3)cc2)CC1 (centres unmarked) [Compound 27] | 8.5
12 | CN1C2CC1CN(c1ccc(Nc3ncc4ccn(CC5CCCO5)c4n3)cc1)C2 (centres unmarked) [Compound 28] | 8.3

Same assay, conditions: ADP-Glo assay; read-out: NUAK1 pIC50 (converted)

Row | SMILES | IC50 [nM]
13 | Cc1cc(=O)n(C2CCCC2)c2nc(Nc3ccc(N4CCN(C)CC4)cc3)ncc12 [Compound 4] | 4.57
14 | CC(C)N1CCN(c2ccc(Nc3ncc4ccn(C5CCCC5)c4n3)cc2)CC1 [Compound 8] | 4.57
15 | CN1C2CC1CN(c1ccc(Nc3ncc4cc(C#N)c(=O)n(C5CCCC5)c4n3)cc1)C2 [Compound 10] | 14.8
16 | CC(C)N1CCN(c2ccc(Nc3ncc4ccn(CC5CCOC(C)(C)C5)c4n3)cc2)CC1 (centres unmarked) [Compound 26] | 2.75
17 | CC(C)N1CCN(c2ccc(Nc3ncc4ccn(CC5CCCO5)c4n3)cc2)CC1 (centres unmarked) [Compound 27] | 3.39
18 | CN1C2CC1CN(c1ccc(Nc3ncc4ccn(CC5CCCO5)c4n3)cc1)C2 (centres unmarked) [Compound 28] | 5.5

System: not listed separately
Experiment: Brain protein binding
Type: in vitro ADME
Settings: mouse brain tissue, read-out: BPB Fu
Source text: (§11) All single point assay determinations carried out in duplicate.

Row | SMILES | fraction unbound at 5 h, 1 µM
19 | CN1CCN(c2ccc(Nc3ncc4cc(C#N)c(=O)n(C5CCCC5)c4n3)cc2)CC1 [Compound 3, Narazaciclib, reference compound] | 0.012
20 | CN1C2CC1CN(c1ccc(Nc3ncc4cc(C#N)c(=O)n(C5CCCC5)c4n3)cc1)C2 [Compound 10] | 0.01
21 | CC(C)N1CCN(c2ccc(Nc3ncc4ccn(CC5CCCO5)c4n3)cc2)CC1 (centres unmarked) [Compound 27] | 0.039

System: not listed separately
Experiment: Mouse PK cassette (5 mg/kg, I.P.)
Settings: male, CD-1, mouse, brain / plasma (unbound), ip
Method: (§12) To investigate the effect of increasing mouse microsomal stability on in vivo half-lives, 9, 10 and 24 were coadministered with 3 in a mouse PK cassette (5 mgkg^–1, I.P.) (Table 5).
ADMET and PK experimental methods
(§13) Microsomal stability: analysis was performed by Cyprotex Discovery. Briefly, test compounds in
(§14) microsomes (0.5 mg protein/mL) in the presence of NADPH (1 mM) at 37 °C. Aliquots were taken at
(§15) generic LC-MS/MS conditions for compound remaining, allowing the determination of the half-life for
(§16) MDR1-MDCK Permeability (bi-directional): was performed by Cyprotex Discovery. Briefly,
(§17) compounds were administered at 10 µM (1% DMSO final) to the apical or basolateral side of a
(§18) confluent monolayer of MDR1- MDCK cells, then incubated at 37 °C for 60 minutes before appearance
(§19) on the opposite side of the monolayer was determined LC-MS/MS. The efflux ratio (ER) is calculated
(§20) from the ratio of B-A to A-B permeabilities.
(§21) Plasma protein binding: was performed by ChemPartner Co. Ltd. Briefly, compounds in DMSO (1
(§22) µM, 0.2% DMSO final) were added to mouse plasma or brain tissue and dialysed against buffer for 5
(§23) hrs at 37 °C. The compound concentration in each of the plasma and buffer compartments was
(§24) determined by mass spectrometry and used to calculate the percentage compound bound.
(§25) Pharmacokinetic analysis: was performed by ChemPartner Co. Ltd. Male CD-1 mice (N=3 per
(§26) timepoint) were intraperitoneally dosed at 5 mg/kg, as a cassette of five compounds, formulated in 10%
(§27) DMSO, 10% Solutol HS 15, 80% (50 mM citrate buffer pH3.0) at 0.5 mg/mL. At the designated time
(§28) points a blood sample was collected from the facial vein into K2EDTA tubes, and plasma separated by
(§29) centrifugation. Mice were euthanised by CO2 inhalation and brains were dissected and homogenised.
(§30) Compound levels were quantified by LC-MS/MS and PK parameters estimated by a non-compartmental
model using WinNonlin 8.2.

Row | SMILES | Kp uu at 0.5 h
22 | CN1CCN(c2ccc(Nc3ncc4cc(C#N)c(=O)n(C5CCCC5)c4n3)cc2)CC1 [Compound 3, Narazaciclib, reference compound] | 0.29
23 | CN1C2CC1CN(c1ccc(Nc3ncc4cc(C#N)c(=O)n(C5CCCC5)c4n3)cc1)C2 [Compound 10] | 0.37

Same assay, conditions: male, CD-1, mouse, brain / plasma, ip

Row | SMILES | Kp at 0.5 h
24 | CN1CCN(c2ccc(Nc3ncc4cc(C#N)c(=O)n(C5CCCC5)c4n3)cc2)CC1 [Compound 3, Narazaciclib, reference compound] | 1.9
25 | CN1C2CC1CN(c1ccc(Nc3ncc4cc(C#N)c(=O)n(C5CCCC5)c4n3)cc1)C2 [Compound 10] | 0.7

Same assay, conditions: male, CD-1, mouse, brain, ip

Row | SMILES | concentration at 30 min [ng/mL] | concentration at 2 h [ng/mL]
26 | CN1CCN(c2ccc(Nc3ncc4cc(C#N)c(=O)n(C5CCCC5)c4n3)cc2)CC1 [Compound 3, Narazaciclib, reference compound] | 1160 | 181

Same assay, conditions: mouse, I.P., cassette

Row | SMILES | AUCinf [ng·h/mL] | Plasma t1/2 [h]
27 | CN1CCN(c2ccc(Nc3ncc4cc(C#N)c(=O)n(C5CCCC5)c4n3)cc2)CC1 [Compound 3, Narazaciclib, reference compound] | 897 | 0.9
28 | CN1C2CC1CN(c1ccc(Nc3ncc4cc(C#N)c(=O)n(C5CCCC5)c4n3)cc1)C2 [Compound 10] | 1131 | 1.1

Molecular target: T2, MARK3 (Homo sapiens, UniProt P27448)
T2 construct: purchased MRC PPU
T2 sequence (P27448 whole entry): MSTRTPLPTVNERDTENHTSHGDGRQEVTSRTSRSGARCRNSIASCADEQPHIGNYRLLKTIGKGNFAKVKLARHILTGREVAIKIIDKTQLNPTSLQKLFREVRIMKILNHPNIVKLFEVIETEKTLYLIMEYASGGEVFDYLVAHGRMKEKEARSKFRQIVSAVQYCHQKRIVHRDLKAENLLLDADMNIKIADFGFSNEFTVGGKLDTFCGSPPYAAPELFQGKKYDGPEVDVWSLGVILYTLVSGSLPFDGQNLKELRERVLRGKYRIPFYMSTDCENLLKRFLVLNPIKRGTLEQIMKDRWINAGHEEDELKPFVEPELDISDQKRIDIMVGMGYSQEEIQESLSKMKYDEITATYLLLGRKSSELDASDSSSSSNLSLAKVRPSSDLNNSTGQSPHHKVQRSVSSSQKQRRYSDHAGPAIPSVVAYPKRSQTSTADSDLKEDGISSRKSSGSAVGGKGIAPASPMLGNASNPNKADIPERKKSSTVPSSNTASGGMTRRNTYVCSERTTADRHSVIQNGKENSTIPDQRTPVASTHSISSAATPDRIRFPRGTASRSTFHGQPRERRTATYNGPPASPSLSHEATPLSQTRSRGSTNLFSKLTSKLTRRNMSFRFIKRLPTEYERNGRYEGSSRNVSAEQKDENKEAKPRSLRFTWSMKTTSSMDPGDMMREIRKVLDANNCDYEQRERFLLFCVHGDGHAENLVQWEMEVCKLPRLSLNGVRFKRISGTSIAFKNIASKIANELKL
Experiment: ADP-Glo biochemical assay MARK3
Settings: ADP-Glo assay
Method: as §1, §2, §3, §4, §5, §6, §7, §8, §9, §10

Row | SMILES | MARK3 pIC50
29 | CN1CCN(c2ccc(Nc3ncc4cc(C#N)c(=O)n(C5CCCC5)c4n3)cc2)CC1 [Compound 3, Narazaciclib, reference compound] | 5.8
30 | Cc1cc(=O)n(C2CCCC2)c2nc(Nc3ccc(N4CCN(C)CC4)cc3)ncc12 [Compound 4] | 6.4
31 | CC(C)N1CCN(c2ccc(Nc3ncc4c(n3)N(C3CCCC3)C(=O)C4)cc2)CC1 [Compound 7] | 6.02 and 6.0
32 | CC(C)N1CCN(c2ccc(Nc3ncc4ccn(C5CCCC5)c4n3)cc2)CC1 [Compound 8] | 6.2
33 | CN1C2CC1CN(c1ccc(Nc3ncc4cc(C#N)c(=O)n(C5CCCC5)c4n3)cc1)C2 [Compound 10] | 5.9
34 | Cc1cc(=O)n(C(C)C)c2nc(Nc3ccc(N4CC5CC(C4)N5C)cc3)ncc12 [Compound 20] | 6.0
35 | CC(C)N1CCN(c2ccc(Nc3ncc4ccn(CC5CCOC(C)(C)C5)c4n3)cc2)CC1 (centres unmarked) [Compound 26] | 5.2
36 | CC(C)N1CCN(c2ccc(Nc3ncc4ccn(CC5CCCO5)c4n3)cc2)CC1 (centres unmarked) [Compound 27] | 6.2
37 | CN1C2CC1CN(c1ccc(Nc3ncc4ccn(CC5CCCO5)c4n3)cc1)C2 (centres unmarked) [Compound 28] | 5.68 and 5.7

Same assay, conditions: ADP-Glo assay; read-out: MARK3 pIC50 (converted)

Row | SMILES | IC50 [nM]
38 | CN1CCN(c2ccc(Nc3ncc4cc(C#N)c(=O)n(C5CCCC5)c4n3)cc2)CC1 [Compound 3, Narazaciclib, reference compound] | 1480
39 | Cc1cc(=O)n(C2CCCC2)c2nc(Nc3ccc(N4CCN(C)CC4)cc3)ncc12 [Compound 4] | 437
40 | CC(C)N1CCN(c2ccc(Nc3ncc4ccn(CC5CCCO5)c4n3)cc2)CC1 (centres unmarked) [Compound 27] | 676

Same assay, conditions: MARK3 IC50/NUAK1 IC50

Row | SMILES | MARK3 Fold selectivity IC50/NUAK1 IC50
41 | CN1CCN(c2ccc(Nc3ncc4cc(C#N)c(=O)n(C5CCCC5)c4n3)cc2)CC1 [Compound 3, Narazaciclib, reference compound] | 56 fold
42 | Cc1cc(=O)n(C2CCCC2)c2nc(Nc3ccc(N4CCN(C)CC4)cc3)ncc12 [Compound 4] | 95 fold and 96 fold
43 | CC(C)N1CCN(c2ccc(Nc3ncc4c(n3)N(C3CCCC3)C(=O)C4)cc2)CC1 [Compound 7] | 229 fold
44 | CC(C)N1CCN(c2ccc(Nc3ncc4ccn(C5CCCC5)c4n3)cc2)CC1 [Compound 8] | 138 fold
45 | CN1C2CC1CN(c1ccc(Nc3ncc4cc(C#N)c(=O)n(C5CCCC5)c4n3)cc1)C2 [Compound 10] | 83 fold
46 | Cc1cc(=O)n(C(C)C)c2nc(Nc3ccc(N4CC5CC(C4)N5C)cc3)ncc12 [Compound 20] | 47 fold
47 | CC(C)N1CCN(c2ccc(Nc3ncc4ccn(CC5CCCO5)c4n3)cc2)CC1 (centres unmarked) [Compound 27] | 200 fold and 201 fold
48 | CN1C2CC1CN(c1ccc(Nc3ncc4ccn(CC5CCCO5)c4n3)cc1)C2 (centres unmarked) [Compound 28] | 380 fold

System: MDR1 (P-gp)
Experiment: MDR1-MDCK permeability (bi-directional)
Type: in vitro ADME, canine
Settings: dog, MDCK-MDR1; ratio of B-A to A-B permeabilities; read-out: MDCK ER (efflux ratio)
Source text: as §11

Row | SMILES | efflux ratio at 1 h, 10 µM | efflux ratio at 60 min, 10 µM
49 | CN1CCN(c2ccc(Nc3ncc4cc(C#N)c(=O)n(C5CCCC5)c4n3)cc2)CC1 [Compound 3, Narazaciclib, reference compound] | 5.6 | –
50 | CN1C2CC1CN(c1ccc(Nc3ncc4cc(C#N)c(=O)n(C5CCCC5)c4n3)cc1)C2 [Compound 10] | 50 | 49.5

Same assay, conditions: dog; MDR1-MDCK, 10 µM, 60 minutes

Row | SMILES | Papp at 60 min, 10 µM [×10⁻⁶ cm/s]
51 | CN1CCN(c2ccc(Nc3ncc4cc(C#N)c(=O)n(C5CCCC5)c4n3)cc2)CC1 [Compound 3, Narazaciclib, reference compound] | 1.98
52 | CN1C2CC1CN(c1ccc(Nc3ncc4cc(C#N)c(=O)n(C5CCCC5)c4n3)cc1)C2 [Compound 10] | 1.24

System: not listed separately
Experiment: Plasma protein binding
Type: in vitro ADME
Settings: mouse plasma, read-out: PPB Fu
Source text: as §11

Row | SMILES | fraction unbound at 5 h, 1 µM
53 | CN1C2CC1CN(c1ccc(Nc3ncc4cc(C#N)c(=O)n(C5CCCC5)c4n3)cc1)C2 [Compound 10] | 0.019

System: not listed separately
Experiment: in vivo
Settings: male, CD-1, mouse, ip, 5 mg/kg
Method: as §12
ADMET and PK experimental methods
as §13, §14, §15, §16, §17, §18, §19, §20, §21, §22, §23, §24, §25, §26, §27, §28, §29, §30
model using WinNonlin 8.2.

Row | SMILES | concentration at 30 min [ng/mL] | concentration at 2 h [ng/mL]
54 | CN1C2CC1CN(c1ccc(Nc3ncc4cc(C#N)c(=O)n(C5CCCC5)c4n3)cc1)C2 [Compound 10] | 293 | 146

— PMC11831560, “Development of the Pyrido[2,3-d]pyrimidin-7(8H)-one Scaffold toward Potent and Selective NUAK1 Inhibitors” (ACS Medicinal Chemistry Letters, 2025)
